Assay [1] addresses T1, DC-SIGN (Homo sapiens, UniProt Q9NNX6).
T1 construct: expressed in transfected cells; host or cells: 293T cells
T1 sequence (Q9NNX6 1-404): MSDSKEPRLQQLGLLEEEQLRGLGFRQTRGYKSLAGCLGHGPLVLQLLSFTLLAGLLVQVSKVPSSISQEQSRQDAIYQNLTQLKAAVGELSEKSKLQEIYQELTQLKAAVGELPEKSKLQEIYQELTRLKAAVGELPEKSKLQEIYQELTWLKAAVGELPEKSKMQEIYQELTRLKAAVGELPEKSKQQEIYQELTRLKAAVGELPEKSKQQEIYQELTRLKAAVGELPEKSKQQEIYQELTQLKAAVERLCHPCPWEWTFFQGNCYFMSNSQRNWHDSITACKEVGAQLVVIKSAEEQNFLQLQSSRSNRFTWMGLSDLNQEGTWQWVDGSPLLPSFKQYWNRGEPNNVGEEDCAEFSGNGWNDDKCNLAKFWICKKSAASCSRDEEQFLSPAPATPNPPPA
Nature of the assay: Sugar competition, biotinylated DV binding to DC-SIGN-transfected 293T cells. Conditions: flow cytometry. It counts as cell-based. How it is done:
In FIG. 16b, complexes of DV (5×10^6 PFU) with receptor.Fc (5 μg) were immunoprecipitated and detected on westerns with mAb to DV envelope (E) protein. […] FIGS. 16d and 16e show sugar competition assays wherein both DC-SIGN (CLEC4L) and DVLR1/CLEC5A increase DV binding to human 293T cells (FIG. 16d), while addition of sugars inhibits biotinylated DV binding to DC-SIGN- (left panel) or DLVR1/CLEC5A- (right panel) transfected 293T cells in a dose-dependent manner as determined by flow cytometry (FIG. 16e). According to FIG. 16e, MFI represents mean fluorescence intensity. Units (U) for monosaccharide (mannose and fucose) and polysaccharide (mannan) are mM and mg/ml, respectively. […] Data are expressed as the mean±s.d. of three independent experiments. Two-tailed, Student's t-tests were performed.
There are two conserved N-linked glycosylation sites at Asn-67 and Asn-153 of E protein (Pokidysheva, E. et al., Cell 124:485-93 (2006)), and the attached glycans (with terminal fucose and mannose) have been implicated in cellular attachment and viral entry (Modis, Y. et al., J. Virol. 79:1223-1231 (2005)). To investigate the participation of glycans in the association of DVLR1/CLEC5A with DV, virions were incubated with fucose, mannose, or mannan; where the last two sugars are the ligands for DC-SIGN (Mitchell et al., J. Biol. Chem. 276: 28939-28945 ([…])).
(A flow cytometer gives signals particle by particle.)

In assay [2] the target is T2, Dectin-1.Fc (Homo sapiens, UniProt Q9BXN2).
T2 construct: The extracellular domains of lectin receptors, TREMs and TLTs were cloned by the reverse-transcriptase polymerase chain reaction (RT-PCR); made in house; host or cells: 293-F (FreeStyle 293) cells
T2 sequence (Q9BXN2 66-247 limits assumed): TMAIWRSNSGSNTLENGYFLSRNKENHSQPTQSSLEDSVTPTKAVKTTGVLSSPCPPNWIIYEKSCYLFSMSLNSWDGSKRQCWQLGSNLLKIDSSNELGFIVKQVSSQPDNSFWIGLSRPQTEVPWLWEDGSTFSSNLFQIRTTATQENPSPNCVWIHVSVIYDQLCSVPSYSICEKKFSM
Nature of the assay: Immunosorbent dot binding assay with Dectin-1.Fc.

The target of assay [3] is T3, KCR.Fc (Mus musculus, UniProt P70194).
T3 construct: the extracellular domains of DVLR1/CLEC5A (MDL-1), Dectin-1, KCR, and DC-SIGN (as a positive control) were fused to the Fc portion of human IgG1; made in house; host or cells: 293-F (FreeStyle 293) cells
T3 sequence (P70194 70-548 limits assumed): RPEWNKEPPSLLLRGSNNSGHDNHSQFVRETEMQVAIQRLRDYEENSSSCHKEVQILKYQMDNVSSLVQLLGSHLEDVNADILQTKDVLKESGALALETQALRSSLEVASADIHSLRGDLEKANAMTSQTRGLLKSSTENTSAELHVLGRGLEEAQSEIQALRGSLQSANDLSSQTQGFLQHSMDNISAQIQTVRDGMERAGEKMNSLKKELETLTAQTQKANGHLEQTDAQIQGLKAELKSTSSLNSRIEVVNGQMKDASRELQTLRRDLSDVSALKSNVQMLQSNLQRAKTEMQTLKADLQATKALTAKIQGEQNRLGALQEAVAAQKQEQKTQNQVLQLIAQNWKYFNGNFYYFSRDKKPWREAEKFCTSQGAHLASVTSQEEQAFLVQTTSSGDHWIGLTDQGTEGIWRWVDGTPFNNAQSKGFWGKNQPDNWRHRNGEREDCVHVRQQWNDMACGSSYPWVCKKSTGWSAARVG
Nature of the assay: Immunosorbent dot binding assay with KCR.Fc. Conditions: polysaccharide immobilized on PVDF membrane; receptor.Fc 1 μg/mL.

Assay [4] addresses T4, DC-SIGNR.Fc (Homo sapiens, UniProt Q9H2X3).
T4 construct: The extracellular domains of lectin receptors, TREMs and TLTs were cloned by the reverse-transcriptase polymerase chain reaction (RT-PCR); made in house; host or cells: 293-F (FreeStyle 293) cells
T4 sequence (Q9H2X3 71-399): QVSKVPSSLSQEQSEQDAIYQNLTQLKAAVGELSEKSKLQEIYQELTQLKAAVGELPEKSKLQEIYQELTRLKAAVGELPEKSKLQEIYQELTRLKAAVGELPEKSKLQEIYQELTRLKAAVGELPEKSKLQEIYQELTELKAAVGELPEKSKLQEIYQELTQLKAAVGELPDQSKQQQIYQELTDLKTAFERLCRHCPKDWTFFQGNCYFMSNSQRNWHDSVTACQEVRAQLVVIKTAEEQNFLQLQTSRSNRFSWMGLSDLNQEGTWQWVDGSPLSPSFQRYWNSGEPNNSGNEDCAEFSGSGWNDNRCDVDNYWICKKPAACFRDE
Kind of assay: Immunosorbent dot binding assay with DC-SIGNR.Fc. Conditions: polysaccharide immobilized on PVDF membrane; receptor.Fc 1 μg/mL.

Assay [5] has as its target T5, TLT-2.Fc (Homo sapiens, UniProt Q5T2D2).
T5 construct: The extracellular domains of lectin receptors, TREMs and TLTs were cloned by the reverse-transcriptase polymerase chain reaction (RT-PCR); made in house; host or cells: 293-F (FreeStyle 293) cells
T5 sequence (Q5T2D2 19-268 limits assumed): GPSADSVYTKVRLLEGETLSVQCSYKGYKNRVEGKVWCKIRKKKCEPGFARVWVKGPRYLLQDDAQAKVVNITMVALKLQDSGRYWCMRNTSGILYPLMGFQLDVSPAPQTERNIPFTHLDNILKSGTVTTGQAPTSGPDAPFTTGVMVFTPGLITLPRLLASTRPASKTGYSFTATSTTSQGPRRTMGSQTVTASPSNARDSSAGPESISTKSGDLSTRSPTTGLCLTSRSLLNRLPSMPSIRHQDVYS
Kind of assay: Immunosorbent dot binding assay with TLT-2.Fc. The following applies: polysaccharide immobilized on PVDF membrane; receptor.Fc 1 μg/mL.

The results in this text go back to patent US8460669B2, “Compositions and methods for identifying response targets and treating flavivirus infection responses” (Academia Sinica, priority 2005, dated 2013).

Take mannan: in assay [1], the “inhibition of the DC-SIGN-DV interaction” value was “dose-dependent inhibition”.

For the substance β-1,3-glucan [b-glucan], in assay [2] (competitor 0.1 μg-1000 μg, or EDTA 10 mM in TBST), the “inhibition of the interaction between Dectin-1.Fc and F3” value was “inhibited”. In addition, the “interaction with Dectin-1.Fc in dot-binding assay” value in assay [2] (polysaccharide immobilized on PVDF membrane, receptor.Fc 1 μg/mL) is on record as “can bind”. Further, in assay [3], the “interaction with KCR.Fc in dot-binding assay” value was “only Dectin-1.Fc can bind”. For the same substance, the “interaction with DC-SIGNR.Fc in dot-binding assay” value in assay [4] was “only Dectin-1.Fc can bind”. In addition, the “interaction with TLT-2.Fc in dot-binding assay” value in assay [5] is “only Dectin-1.Fc can bind”.
